According to patent publication US9844226B2 (AJINOMOTO CO., INC., priority 2009, dated 2017):
“And” between values parts separate entries of the source, which are not always exact repeats. Equal entries are not always repeated. “Also recorded” adds a separate entry of the source. Starred links: 1 amine or outer side, 2 acyl side, 3 side chain; linkers in the order of their positions; H or OH if unused. Non-standard residues stand in square brackets, D forms with d. No end group written: not given here. γGlu = O=C(O)[C@H](CCC(=O)[*:2])N[*:1]

Columns and labels:
Type in all cases: in vivo, human
panelists [1] = assay: Quantitative sensory evaluation test of kokumi-imparting activity; conditions: for Strength of Kokumi Impartment, Initial Taste / Strength of Kokumi Impartment, Middle/After Taste: scale -5~0~5, n=4; for Kokumi-imparting strength compared with γ-Glu-Val (in words): in vivo
Experimental: This quantitative sensory evaluation test was carried out as follows: The strength of the kokumi-imparting activity was measured for the cases where the test compound was mixed at concentrations of 0.001 to 0.5 g/dL with distilled water containing sodium glutamate (0.05 g/dL), inosine monophosphate (0.05 g/dL), and sodium chloride (0.5 g/dL). After the test compound was dissolved, samples more acidic than a control with no added test compound were adjusted, before further use, with NaOH to have a pH in a range of ±0.2 from the pH of the control with no added test compound. The sensory evaluation scores were as follows: control: 0 points; strong: 3 points; very strong: 5 points. The sensory evaluation was carried out using n (the number of panelists)=4. Moreover, to clarify the scale, the initial taste and the middle/after taste of γ-[…] at 0.001 g/dL were both set as 3.0 points. The term “middle/after taste” refers to the taste perceived during the period which includes the middle taste and the after taste. For the scoring, a linear scale method was employed. In this method, the score was marked as a position on a straight line showing positions for scores ranging from -5 0 5.

panelists [2] = assay: Quantitative sensory evaluation test of salty taste enhancement
Experimental: After the test compound was dissolved, samples more acidic than a control containing no added test compound were adjusted, before further use, with NaOH to have a pH in a range of ±0.2 from the pH of the control to which no test compound was added.
The sensory evaluation scores were as follows, the control to which no test compound was added, i.e. a 0.5 g/dL sodium chloride solution: 0 points; a 0.75 g/dL sodium chloride solution: 5 points. The sensory evaluation was conducted on a scale ranging from −5 to 0 to 5, with n=5. The “initial taste” refers to the taste perceived by each panelist from the start of eating the sample to 2 seconds thereafter, while the term “middle/after taste” refers to that perceived by each panelist from 2 seconds on and after eating the same, i.e. perceived during the period including both the middle taste and the after taste. For the scoring, a linear scale method was used. In this method, the score was marked as a position on a straight line showing positions for scores ranging from −5˜0˜5. The panelists were persons who were engaged in the development of seasonings for foods for one year or longer in total, and who were capable of determining that the difference in the potency between γ-Glu-Cys-Gly and γ-Glu-Val-Gly each added to a umami taste and salty taste solution was around 10 times, while confirming the ability of these persons at regular intervals.

panelists [3] = assay: Strength of kokumi-imparting activity by Point of Subjective Equality (PSE), limit-determining technique
Experimental: The intensity of the kokumi-imparting activity of γ-Glu-Abu was determined by Point of Subjective Equality (PSE) according to the limit-determining technique (“Statistical Sensory Examination techniques”, written by SATO Shin, published by Japan Federation of Science and Technology). The sensory evaluation was carried out as follows: Distilled water containing sodium glutamate (0.05 g/dL), inosine monophosphate (0.05 g/dL) and sodium chloride (0.5 g/dL) was used as the solution for the sensory evaluation. […] To determine the concentration of γ-Glu-Val at which the strength of taste is the same as that of a solution obtained by causing the solution for the sensory evaluation to contain 0.005 g/dL of γ-[…] solutions were prepared with a concentration that varied on a 50% logarithmic scale by using a solution obtained by causing the solution for the sensory evaluation, to contain 0.01 g/dL of γ-Glu-Val as a standard. The concentrations of γ-Glu-Val was set to 7 values ranging from 0.0030 to 0.0337 g/dL. After the test substance was dissolved, samples more acidic than the control with no added test substance were adjusted, before further use, with NaOH to have a pH in a range of ±0.2 as compared to the pH of the control with no added test substance. The solutions were presented to eighteen panelists in ascending order of the γ-Glu-Val concentration. The evaluation was carried out until each panelist perceived that the strength was higher than that of the 0.005 g/dL γ-Glu-Abu solution. After a certain interval, the solutions were next presented to the eighteen panelists in descending order of the γ-Glu-Val concentration. The evaluation was carried out until each panelist perceived that the strength was lower than that of the 0.005 g/dL γ-Glu-Abu solution. In this sensory evaluation, the panelists were experienced in the development of food products. When the lower and upper threshold values were the same, there was no γ-Glu-Val concentration at which the difference between the perception that the strength was lower, and the perception that the strength was higher, was uncertain. […] Each confidence threshold (average) is an average of the lower thresholds and the upper thresholds. The point of subjective equality (PSE) of γ-Glu-Val to 50 ppm (0.0050 g/dL) of γ-Glu-Abu is expressed as follows: (the sum of the confidence threshold of the lower thresholds and that of the upper threshold value)/2.

[4] = 0.2 g/dL in water with MSG 0.05, IMP 0.05, NaCl 0.5 g/dL
[5] = 0.002 g/dL in 0.5 g/dL NaCl, 0.5 g/dL NaCl = 0, 0.75 g/dL NaCl = 5, n=5
[6] = 0.01 g/dL in water with MSG 0.05, IMP 0.05, NaCl 0.5 g/dL
[7] = γ-Glu-Val vs 50 ppm γ-Glu-Abu, individual panelists (Nos. 1-18), ascending order of presentation
[8] = γ-Glu-Val vs 50 ppm γ-Glu-Abu, individual panelists (Nos. 19-36), descending order of presentation

## N[C@@H](CCC(=O)N[C@@H](CO)C(=O)O)C(=O)O [γ-Glu-Ser, γ-L-Glu-L-Ser]
Panelists [1]; [4]
  Strength of Kokumi Impartment, Initial Taste: 3.6 points
  Strength of Kokumi Impartment, Middle/After Taste: 3.0 points
Panelists [1]
  Kokumi-imparting strength compared with γ-Glu-Val (in words): lower strength than γ-Glu-Val

## [γGlu]-Val-Gly
Panelists [2]; [5]
  Strength of Salty Taste Impartment, Initial Taste: 0.8 points
  Strength of Salty Taste Impartment, Middle/After Taste: 1.8 points
Panelists [2]; comparison of γ-Glu-Val-Gly and γ-Glu-Abu
  Salty taste enhancement ability (in words): higher taste-imparting strength than γ-Glu-Abu; also recorded: remarkably disturbs the balance of the salty taste

## C[C@H](NC(=O)CC[C@H](N)C(=O)O)C(=O)O [γ-Glu-Ala, γ-L-Glu-L-Ala]
Panelists [1]; [4]
  Strength of Kokumi Impartment, Initial Taste: 4.5 points
  Strength of Kokumi Impartment, Middle/After Taste: 4.3 points
Panelists [1]
  Kokumi-imparting strength compared with γ-Glu-Val (in words): lower strength than γ-Glu-Val

## CC(C)[C@H](NC(=O)CC[C@H](N)C(=O)O)C(=O)O [γ-Glu-Val, γ-L-Glu-L-Val]
Panelists [1]; 0.01 g/dL
  Sensory Evaluation Profile (kokumi): The after taste was extremely weak.
Panelists [1]; [6]
  Strength of Kokumi Impartment, Initial Taste: 3.1 points
  Strength of Kokumi Impartment, Middle/After Taste: 2.4 points
Panelists [3]; (lower + upper confidence threshold)/2
  PSE (point of subjective equality) of γ-Glu-Val to 50 ppm γ-Glu-Abu: 121.9 ppm
Panelists [3]; estimated from Table 4
  γ-Glu-Val concentration (PSE) with the same strength as 0.0050 g/dL γ-Glu-Abu, estimated from number of panelists (Table 4): 0.0100 g/dL
Panelists [3]; vs 0.0050 g/dL γ-Glu-Abu
  PSE calculated from upper and lower threshold concentrations of γ-Glu-Val: 0.0122 g/dL
Panelists [3]; γ-Glu-Val 0.0030 g/dL
  No. of Panelists whose evaluation was such that the difference between γ-Glu-Val and γ-Glu-Abu (0.0050 g/dL) was uncertain: 0 No. of panelists
  No. of Panelists whose evaluation was such that γ-Glu-Val was weaker than γ-Glu-Abu (0.0050 g/dL): 36 No. of panelists
Panelists [3]; γ-Glu-Val 0.0030 g/dL, 18 panelists, ascending and descending
  No. of Panelists whose evaluation was such that γ-Glu-Val was stronger than γ-Glu-Abu (0.0050 g/dL): 0 No. of panelists
Panelists [3]; γ-Glu-Val 0.0044 g/dL
  No. of Panelists whose evaluation was such that the difference between γ-Glu-Val and γ-Glu-Abu (0.0050 g/dL) was uncertain: 0 No. of panelists
  No. of Panelists whose evaluation was such that γ-Glu-Val was stronger than γ-Glu-Abu (0.0050 g/dL): 1 No. of panelists
  No. of Panelists whose evaluation was such that γ-Glu-Val was weaker than γ-Glu-Abu (0.0050 g/dL): 35 No. of panelists
Panelists [3]; γ-Glu-Val 0.0067 g/dL
  No. of Panelists whose evaluation was such that the difference between γ-Glu-Val and γ-Glu-Abu (0.0050 g/dL) was uncertain: 13 No. of panelists
  No. of Panelists whose evaluation was such that γ-Glu-Val was stronger than γ-Glu-Abu (0.0050 g/dL): 3 No. of panelists
  No. of Panelists whose evaluation was such that γ-Glu-Val was weaker than γ-Glu-Abu (0.0050 g/dL): 20 No. of panelists
Panelists [3]; γ-Glu-Val 0.0100 g/dL
  No. of Panelists whose evaluation was such that the difference between γ-Glu-Val and γ-Glu-Abu (0.0050 g/dL) was uncertain: 13 No. of panelists
  No. of Panelists whose evaluation was such that γ-Glu-Val was stronger than γ-Glu-Abu (0.0050 g/dL): 11 No. of panelists
  No. of Panelists whose evaluation was such that γ-Glu-Val was weaker than γ-Glu-Abu (0.0050 g/dL): 12 No. of panelists
Panelists [3]; γ-Glu-Val 0.0150 g/dL
  No. of Panelists whose evaluation was such that the difference between γ-Glu-Val and γ-Glu-Abu (0.0050 g/dL) was uncertain: 6 No. of panelists
  No. of Panelists whose evaluation was such that γ-Glu-Val was stronger than γ-Glu-Abu (0.0050 g/dL): 25 No. of panelists
  No. of Panelists whose evaluation was such that γ-Glu-Val was weaker than γ-Glu-Abu (0.0050 g/dL): 5 No. of panelists
Panelists [3]; γ-Glu-Val 0.0225 g/dL
  No. of Panelists whose evaluation was such that the difference between γ-Glu-Val and γ-Glu-Abu (0.0050 g/dL) was uncertain: 7 No. of panelists
  No. of Panelists whose evaluation was such that γ-Glu-Val was stronger than γ-Glu-Abu (0.0050 g/dL): 28 No. of panelists
  No. of Panelists whose evaluation was such that γ-Glu-Val was weaker than γ-Glu-Abu (0.0050 g/dL): 1 No. of panelists
Panelists [3]; γ-Glu-Val 0.0337 g/dL
  No. of Panelists whose evaluation was such that the difference between γ-Glu-Val and γ-Glu-Abu (0.0050 g/dL) was uncertain: 0 No. of panelists
  No. of Panelists whose evaluation was such that γ-Glu-Val was stronger than γ-Glu-Abu (0.0050 g/dL): 36 No. of panelists
  No. of Panelists whose evaluation was such that γ-Glu-Val was weaker than γ-Glu-Abu (0.0050 g/dL): 0 No. of panelists
Panelists [3]; γ-Glu-Val vs 50 ppm γ-Glu-Abu, average of the 36 lower thresholds
  Confidence Region (average), Lower Threshold: 94.5 ppm
Panelists [3]; γ-Glu-Val vs 50 ppm γ-Glu-Abu, average of the 36 upper thresholds
  Confidence Region (average), Upper Threshold: 149.3 ppm
Panelists [3]; [7]
  Lower Threshold at which each panelist determined that the concentrations were the same: 55.5 ppm and 125.0 ppm and 37.0 ppm and 83.5 ppm and 187.5 ppm
  Upper Threshold at which each panelist determined that the concentrations were the same: 55.5 ppm and 125.0 ppm and 187.5 ppm and 37.0 ppm and 281.0 ppm and 83.5 ppm
Panelists [3]; [8]
  Lower Threshold at which each panelist determined that the concentrations were the same: 125.0 ppm (3×) and 83.5 ppm (5×) and 187.5 ppm (3×) and 55.5 ppm (5×) and 56.0 ppm and 281.0 ppm
  Upper Threshold at which each panelist determined that the concentrations were the same: 125.0 ppm (7×) and 281.0 ppm (5×) and 187.5 ppm (2×) and 83.5 ppm (4×)

## N[C@@H](CCC(=O)N[C@@H](CS)C(=O)O)C(=O)O [γ-Glu-Cys, γ-L-Glu-L-Cys]
Panelists [1]; [6]
  Strength of Kokumi Impartment, Initial Taste: 3.1 points
  Strength of Kokumi Impartment, Middle/After Taste: 3.1 points
Panelists [1]
  Kokumi-imparting strength compared with γ-Glu-Val (in words): strong effect approximately the same as that of γ-Glu-Val
